In patent publication US20220152165A1, “COMBINATION OF NASAL GENE DELIVERY AND ORAL CINNAMIC ACID, OLEAMIDE OR GEMFIBROZIL FOR LYSOSOMAL STOARGE DISORDERS” (Rush University Medical Center, priority 2019, published 2022):

Tested on: Cln2^(−/−) mice
Experiment: Life span of Cln2^(−/−) mice, animal model of late infantile Batten disease (LINCL)
Type: in vivo
Settings: n=6
Description: (§1) For intranasal gene delivery, Cln2^(−/−) mice received 5×10^6 genome copies of Ad-Cln2 in a volume of […] twice a week intranasally (2.5 μl/nostril) starting from two weeks of age for four weeks. For gemfibrozil (gem) treatment, mice received gem (dissolved in 0.1% MeC) orally at a dose of 7.5 mg/kg body weight/day starting from six weeks of age. FIG. 1 describes the percentage of survival is shown by Kaplan-Meier plot.
as §1, with “FIG. 2” for “FIG. 1”, “describes mean” for “describes the percentage of”, “survival days. Six mice (n=6) containing 3 males and 3 females were used in each group. ***p<0.001; NS, not significant.” for “survival is shown by Kaplan-Meier plot.”
Intranasal gene delivery was examined as a valid option for fatal lysosomal storage disorders. A mouse model of Late Infantile Neuronal Ceroid Lipofuscinosis (LINCL) was used, a rare neurodegenerative disease caused by mutations in the Cln2 gene that leads to deficiency or loss of function of the tripeptidyl peptidase 1 (TPP1) enzyme. […]

Cc1ccc(C)c(OCCCC(C)(C)C(=O)O)c1 [gemfibrozil, 5-(2,5-dimethylphenoxy)-2,2-dimethylpentanoic acid]
lifespan of Cln2^−/− mice (gemfibrozil alone, oral 7.5 mg/kg body weight/day starting from six weeks of age, mice not receiving Ad-Cln2): significantly increased the lifespan
lifespan of Cln2^−/− mice that received intranasal Ad-Cln2 (oral gemfibrozil 7.5 mg/kg body weight/day after 4 weeks of intranasal Ad-Cln2, compared with Ad-Cln2 alone): did not further increase the lifespan
